In patent US12110295B2, “WD40 repeat domain protein 5 (WDR5) degradation/disruption compounds and methods of use” (Icahn School of Medicine at Mount Sinai, priority 2018, dated 2024):

Target: WDR5 (Homo sapiens, UniProt P61964)
Test: Screening of putative WDR5 degraders by Western blot in MV4;11 and/or MIAPACA2 cells
Format: cell-based
Design: After WDR5 degrader treatment, cells were collected and lysed; endogenous in cells; host or cells: MV4;11 and/or MIAPACA2
Details: summary of screening, FIGS. 6-10
Description: MV4;11 cells were treated with DMSO or indicated compounds at 0.1 μM and 0.5 μM for 18 hours. […]. MIAPACA2 cells were treated with DMSO or indicated compounds at 0.5 μM and 1.0 μM for 18 hours.
MIAPACA2 cells were treated with DMSO or indicated compounds at 0.1 μM and 0.5 μM for 18 hours.
MIAPACA2 cells were treated with DMSO or indicated compounds at 0.5 μM and 1.0 μM or at 1.0 μM and 10 μM for 18 hours.
MV4;11 cells were treated with DMSO or indicated compounds at 0.1 μM and 1.0 μM for 18 hours.
WDR5 degraders were dissolved in DMSO and DMSO with no degraders was used as the control. 1×10^6 MV4;11 cells or 1×10^5 MIAPACA2 or 2×10^5 Hela cells were seeded in 2 mL medium for each well in […].
For prescreening of all the compounds, each test compound was added to the medium at indicated concentrations. After 18 h treatment, cells were collected.
After WDR5 degrader treatment, cells were collected and lysed. Total cell lysates were used for western blot. The following primary antibodies were used: WDR5 (Santa Cruz), vinculin (Cell Signaling Technology), tubulin (Cell Signaling Technology), GAPDH (Santa Cruz). Blots were imaged using fluorescence-labeled secondary antibodies on ChemiDoc™ Imaging Systems.

effective degradation of WDR5 in MV4;11 and/or MIAPACA2 cells | SMILES
able to effectively degrade WDR5 | Cc1ncsc1-c1ccc(CNC(=O)[C@@H]2C[C@@H](O)CN2C(=O)[C@@H](NC(=O)CCCCCCCCCCCC(=O)NCCN2CCN(Cc3cccc(-c4ccc(N5CCN(C)CC5)c(NC(=O)c5c[nH]c(=O)cc5C(F)(F)F)c4)c3)CC2)C(C)(C)C)cc1 [XF050-161, N^1-((S)-1-((2S,4R)-4-hydroxy-2-((4-(4-methylthiazol-5-yl)benzyl)carbamoyl)pyrrolidin-1-yl)-3,3-dimethyl-1-oxobutan-2-yl)-N^13-(2-(4-((4′-(4-methylpiperazin-1-yl)-3′-(6-oxo-4-(trifluoromethyl)-1,6-dihydropyridine-3-carboxamido)-[1,1′-biphenyl]-3-yl)methyl)piperazin-1-yl)ethyl)tridecanediamide]
able to effectively degrade WDR5 | Cc1ncsc1-c1ccc(CNC(=O)[C@@H]2C[C@@H](O)CN2C(=O)[C@@H](NC(=O)CCCCCCCCCCCCC(=O)NCCN2CCN(Cc3cccc(-c4ccc(N5CCN(C)CC5)c(NC(=O)c5c[nH]c(=O)cc5C(F)(F)F)c4)c3)CC2)C(C)(C)C)cc1 [XF050-162, N^1-((S)-1-((2S,4R)-4-hydroxy-2-((4-(4-methylthiazol-5-yl)benzyl)carbamoyl)pyrrolidin-1-yl)-3,3-dimethyl-1-oxobutan-2-yl)-N^14-(2-(4-((4′-(4-methylpiperazin-1-yl)-3′-(6-oxo-4-(trifluoromethyl)-1,6-dihydropyridine-3-carboxamido)-[1,1′-biphenyl]-3-yl)methyl)piperazin-1-yl)ethyl)tetradecanediamide]
able to effectively degrade WDR5 | CN1CCN(c2ccc(-c3cccc(CN4CCN(CCNC(=O)CCCCCCCOc5cccc6c5C(=O)N(C5CCC(=O)NC5=O)C6=O)CC4)c3)cc2NC(=O)c2c[nH]c(=O)cc2C(F)(F)F)CC1 (stereo not drawn) [XF056-39, N-(3′-((4-(2-(8-((2-(2,6-dioxopiperidin-3-yl)-1,3-dioxoisoindolin-4-yl)oxy)octanamido)ethyl)piperazin-1-yl)methyl)-4-(4-methylpiperazin-1-yl)-[1,1′-biphenyl]-3-yl)-6-oxo-4-(trifluoromethyl)-1,6-dihydropyridine-3-carboxamide]
able to effectively degrade WDR5 | C[C@@H]1CN(c2ccc(-c3ccc(C(=O)NCCCCCCCCNc4cccc5c4C(=O)N(C4CCC(=O)NC4=O)C5=O)cc3F)cc2NC(=O)c2c[nH]c(=O)cc2C(F)(F)F)C[C@H](C)N1C (stereo partly drawn) [XF056-186, N-(4′-((8-((2-(2,6-dioxopiperidin-3-yl)-1,3-dioxoisoindolin-4-yl)amino)octyl)carbamoyl)-2′-fluoro-4-((3R,5S)-3,4,5-trimethylpiperazin-1-yl)-[1,1′-biphenyl]-3-yl)-6-oxo-4-(trifluoromethyl)-1,6-dihydropyridine-3-carboxamide]

Continued, compound first:

SMILES | effective degradation of WDR5 in MV4;11 and/or MIAPACA2 cells
Cc1ncsc1-c1ccc(CNC(=O)[C@@H]2C[C@@H](O)CN2C(=O)[C@@H](NC(=O)CCCCCCCNC(=O)c2ccc(-c3ccc(N4C[C@@H](C)N(C)[C@@H](C)C4)c(NC(=O)c4c[nH]c(=O)cc4C(F)(F)F)c3)c(F)c2)C(C)(C)C)cc1 [XF056-171, N-(2′-fluoro-4′-((8-(((S)-1-((2S,4R)-4-hydroxy-2-((4-(4-methylthiazol-5-yl)benzyl)carbamoyl)pyrrolidin-1-yl)-3,3-dimethyl-1-oxobutan-2-yl)amino)-8-oxooctyl)carbamoyl)-4-((3R,5S)-3,4,5-trimethylpiperazin-1-yl)-[1,1′-biphenyl]-3-yl)-6-oxo-4-(trifluoromethyl)-1,6-dihydropyridine-3-carboxamide] | able to effectively degrade WDR5
Cc1ncsc1-c1ccc(CNC(=O)[C@@H]2C[C@@H](O)CN2C(=O)[C@@H](NC(=O)CCCCCCCCCC(=O)N2CCN(c3ccc(-c4cc(NC(=O)c5c[nH]c(=O)cc5C(F)(F)F)c(N5C[C@@H](C)N(C)[C@@H](C)C5)cc4F)cn3)CC2)C(C)(C)C)cc1 [XF067-133, N-(4-fluoro-5-(6-(4-(11-(((S)-1-((2S,4R)-4-hydroxy-2-((4-(4-methylthiazol-5-yl)benzyl)carbamoyl)pyrrolidin-1-yl)-3,3-dimethyl-1-oxobutan-2-yl)amino)-11-oxoundecanoyl)piperazin-1-yl)pyridin-3-yl)-2-((3S,5R)-3,4,5-trimethylpiperazin-1-yl)phenyl)-6-oxo-4-(trifluoromethyl)-1,6-dihydropyridine-3-carboxamide] | able to effectively degrade WDR5
Cc1ncsc1-c1ccc([C@H](C)NC(=O)[C@@H]2C[C@@H](O)CN2C(=O)[C@@H](NC(=O)CCCCCCCCCC(=O)N2CCN(c3ccc(-c4cc(NC(=O)c5c[nH]c(=O)cc5C(F)(F)F)c(N5C[C@@H](C)N(C)[C@@H](C)C5)cc4F)cn3)CC2)C(C)(C)C)cc1 [XF067-134, N-(4-fluoro-5-(6-(4-(11-(((S)-1-((2S,4R)-4-hydroxy-2-(((S)-1-(4-(4-methylthiazol-5-yl)phenyl)ethyl)carbamoyl)pyrrolidin-1-yl)-3,3-dimethyl-1-oxobutan-2-yl)amino)-11-oxoundecanoyl)piperazin-1-yl)pyridin-3-yl)-2-((3S,5R)-3,4,5-trimethylpiperazin-1-yl)phenyl)-6-oxo-4-(trifluoromethyl)-1,6-dihydropyridine-3-carboxamide] | able to effectively degrade WDR5
Cc1ncsc1-c1ccc(CNC(=O)[C@@H]2C[C@@H](O)CN2C(=O)[C@@H](NC(=O)COCCNC(=O)CCC(=O)N2CCN(c3ccc(-c4cc(NC(=O)c5c[nH]c(=O)cc5C(F)(F)F)c(N5C[C@@H](C)N(C)[C@@H](C)C5)cc4F)cn3)CC2)C(C)(C)C)cc1 [XF067-140, N-(4-fluoro-5-(6-(4-(4-((2-(2-(((S)-1-((2S,4R)-4-hydroxy-2-((4-(4-methylthiazol-5-yl)benzyl)carbamoyl)pyrrolidin-1-yl)-3,3-dimethyl-1-oxobutan-2-yl)amino)-2-oxoethoxy)ethyl)amino)-4-oxobutanoyl)piperazin-1-yl)pyridin-3-yl)-2-((3S,5R)-3,4,5-trimethylpiperazin-1-yl)phenyl)-6-oxo-4-(trifluoromethyl)-1,6-dihydropyridine-3-carboxamide] | able to effectively degrade WDR5
Cc1ncsc1-c1ccc(CNC(=O)[C@@H]2C[C@@H](O)CN2C(=O)[C@@H](NC(=O)COCCOCCNC(=O)CCC(=O)N2CCN(c3ccc(-c4cc(NC(=O)c5c[nH]c(=O)cc5C(F)(F)F)c(N5C[C@@H](C)N(C)[C@@H](C)C5)cc4F)cn3)CC2)C(C)(C)C)cc1 [XF067-142, N-(4-fluoro-5-(6-(4-((S)-3-((2S,4R)-4-hydroxy-2-((4-(4-methylthiazol-5-yl)benzyl)carbamoyl)pyrrolidine-1-carbonyl)-2,2-dimethyl-5,14-dioxo-7,10-dioxa-4,13-diazaheptadecan-17-oyl)piperazin-1-yl)pyridin-3-yl)-2-((3S,5R)-3,4,5-trimethylpiperazin-1-yl)phenyl)-6-oxo-4-(trifluoromethyl)-1,6-dihydropyridine-3-carboxamide] | able to effectively degrade WDR5
